# Reference: patent US11572590B2, “Methods for evaluating tumor cell spheroids using 3D microfluidic cell culture device” (Dana-Farber Cancer Institute, Inc., priority 2017, dated 2023)
# Where two headings read alike, the source gives them in different places.
# Assays:
# Test in all cases: SelectScreen Kinase Profiling, single point inhibition and IC50 for off-target kinases
# Assay type in all cases: biochemical
# off-target kinases [1] = target: T1, off-target kinases (Homo sapiens, UniProt Q16832, N456S); conditions: DDR2 N456S, mutant y, LanthaScreen Binding
# T1 sequence (Q16832 22-855 N456S): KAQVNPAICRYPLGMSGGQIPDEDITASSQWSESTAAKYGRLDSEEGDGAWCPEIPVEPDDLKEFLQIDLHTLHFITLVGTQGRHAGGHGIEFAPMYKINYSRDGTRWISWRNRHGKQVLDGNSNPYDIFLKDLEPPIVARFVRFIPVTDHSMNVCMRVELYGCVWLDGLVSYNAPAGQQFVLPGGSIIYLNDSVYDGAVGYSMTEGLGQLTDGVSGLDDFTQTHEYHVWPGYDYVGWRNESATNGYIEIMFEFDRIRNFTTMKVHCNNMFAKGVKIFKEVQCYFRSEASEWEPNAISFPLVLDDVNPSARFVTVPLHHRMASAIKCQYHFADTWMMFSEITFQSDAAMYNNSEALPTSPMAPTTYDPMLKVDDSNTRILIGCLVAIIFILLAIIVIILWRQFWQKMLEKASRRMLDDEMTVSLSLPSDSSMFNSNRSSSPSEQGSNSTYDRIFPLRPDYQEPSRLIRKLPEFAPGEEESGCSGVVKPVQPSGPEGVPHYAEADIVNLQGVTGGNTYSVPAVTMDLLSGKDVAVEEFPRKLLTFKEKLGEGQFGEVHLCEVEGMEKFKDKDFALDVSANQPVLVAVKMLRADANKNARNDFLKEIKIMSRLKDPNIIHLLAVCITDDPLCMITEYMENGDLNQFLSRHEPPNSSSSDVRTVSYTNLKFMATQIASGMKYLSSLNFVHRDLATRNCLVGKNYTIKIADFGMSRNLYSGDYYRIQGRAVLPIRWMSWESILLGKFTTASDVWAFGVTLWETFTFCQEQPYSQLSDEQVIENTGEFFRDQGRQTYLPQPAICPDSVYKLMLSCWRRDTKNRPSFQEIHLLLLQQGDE
# off-target kinases [2] = target: off-target kinases (Homo sapiens, UniProt P06213); conditions: INSR, ZLYTE, ATP Km app
# off-target kinases (Homo sapiens, UniProt P06213), sequence (P06213 28-1382): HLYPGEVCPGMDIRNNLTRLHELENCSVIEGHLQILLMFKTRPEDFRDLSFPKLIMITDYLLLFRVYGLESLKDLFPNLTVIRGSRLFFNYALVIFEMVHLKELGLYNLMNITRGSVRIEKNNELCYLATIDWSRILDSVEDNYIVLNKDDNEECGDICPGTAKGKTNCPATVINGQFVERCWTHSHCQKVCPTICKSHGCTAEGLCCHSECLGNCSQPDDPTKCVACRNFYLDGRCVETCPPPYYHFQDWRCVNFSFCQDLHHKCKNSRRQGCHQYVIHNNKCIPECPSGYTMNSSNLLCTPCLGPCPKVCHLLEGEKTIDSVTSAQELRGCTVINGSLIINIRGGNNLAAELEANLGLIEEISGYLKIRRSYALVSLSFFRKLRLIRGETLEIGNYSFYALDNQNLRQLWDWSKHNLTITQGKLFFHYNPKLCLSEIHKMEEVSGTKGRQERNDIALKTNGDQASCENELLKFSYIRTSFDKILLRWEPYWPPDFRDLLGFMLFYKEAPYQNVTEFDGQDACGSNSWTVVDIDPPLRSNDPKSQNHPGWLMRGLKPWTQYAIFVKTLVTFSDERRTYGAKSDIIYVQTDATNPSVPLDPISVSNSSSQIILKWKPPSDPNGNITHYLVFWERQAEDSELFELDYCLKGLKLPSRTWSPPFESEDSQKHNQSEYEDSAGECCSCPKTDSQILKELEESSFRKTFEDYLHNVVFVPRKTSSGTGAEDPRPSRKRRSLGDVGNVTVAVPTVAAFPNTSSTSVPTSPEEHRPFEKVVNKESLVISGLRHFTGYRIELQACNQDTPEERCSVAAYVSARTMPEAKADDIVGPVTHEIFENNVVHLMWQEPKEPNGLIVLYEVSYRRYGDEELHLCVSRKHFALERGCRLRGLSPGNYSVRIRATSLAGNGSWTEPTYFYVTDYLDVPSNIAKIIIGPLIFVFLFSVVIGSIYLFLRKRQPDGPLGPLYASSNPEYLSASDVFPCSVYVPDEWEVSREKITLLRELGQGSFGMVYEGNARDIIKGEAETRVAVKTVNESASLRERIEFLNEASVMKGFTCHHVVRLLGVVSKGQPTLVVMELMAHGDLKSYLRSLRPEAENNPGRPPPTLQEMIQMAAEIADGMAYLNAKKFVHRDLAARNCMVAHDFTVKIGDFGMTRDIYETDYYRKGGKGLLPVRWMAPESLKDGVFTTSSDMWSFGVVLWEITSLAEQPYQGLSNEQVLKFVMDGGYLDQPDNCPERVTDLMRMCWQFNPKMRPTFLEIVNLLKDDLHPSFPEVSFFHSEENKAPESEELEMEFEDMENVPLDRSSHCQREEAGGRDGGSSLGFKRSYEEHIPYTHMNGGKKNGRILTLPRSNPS
# off-target kinases [3] = target: off-target kinases (Homo sapiens, UniProt Q9Y2H1); conditions: STK38L (NDR2), LanthaScreen Binding
# off-target kinases (Homo sapiens, UniProt Q9Y2H1), sequence (Q9Y2H1 whole entry): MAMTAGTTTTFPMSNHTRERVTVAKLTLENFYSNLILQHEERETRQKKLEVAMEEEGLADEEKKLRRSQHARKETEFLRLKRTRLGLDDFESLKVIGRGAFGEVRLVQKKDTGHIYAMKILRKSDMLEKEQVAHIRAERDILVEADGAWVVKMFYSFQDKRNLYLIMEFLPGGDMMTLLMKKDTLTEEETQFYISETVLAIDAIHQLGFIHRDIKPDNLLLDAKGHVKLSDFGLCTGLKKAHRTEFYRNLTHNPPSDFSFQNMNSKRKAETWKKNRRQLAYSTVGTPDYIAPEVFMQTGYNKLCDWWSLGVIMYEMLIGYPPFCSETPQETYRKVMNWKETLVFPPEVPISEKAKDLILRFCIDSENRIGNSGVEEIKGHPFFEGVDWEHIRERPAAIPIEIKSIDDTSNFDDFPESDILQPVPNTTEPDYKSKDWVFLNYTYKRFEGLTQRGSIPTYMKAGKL
# off-target kinases [4] = target: T2, off-target kinases (Homo sapiens, UniProt P25098); conditions: ADRBK1 (GRK2), ZLYTE, ATP Km app
# T2 sequence (P25098 1-689): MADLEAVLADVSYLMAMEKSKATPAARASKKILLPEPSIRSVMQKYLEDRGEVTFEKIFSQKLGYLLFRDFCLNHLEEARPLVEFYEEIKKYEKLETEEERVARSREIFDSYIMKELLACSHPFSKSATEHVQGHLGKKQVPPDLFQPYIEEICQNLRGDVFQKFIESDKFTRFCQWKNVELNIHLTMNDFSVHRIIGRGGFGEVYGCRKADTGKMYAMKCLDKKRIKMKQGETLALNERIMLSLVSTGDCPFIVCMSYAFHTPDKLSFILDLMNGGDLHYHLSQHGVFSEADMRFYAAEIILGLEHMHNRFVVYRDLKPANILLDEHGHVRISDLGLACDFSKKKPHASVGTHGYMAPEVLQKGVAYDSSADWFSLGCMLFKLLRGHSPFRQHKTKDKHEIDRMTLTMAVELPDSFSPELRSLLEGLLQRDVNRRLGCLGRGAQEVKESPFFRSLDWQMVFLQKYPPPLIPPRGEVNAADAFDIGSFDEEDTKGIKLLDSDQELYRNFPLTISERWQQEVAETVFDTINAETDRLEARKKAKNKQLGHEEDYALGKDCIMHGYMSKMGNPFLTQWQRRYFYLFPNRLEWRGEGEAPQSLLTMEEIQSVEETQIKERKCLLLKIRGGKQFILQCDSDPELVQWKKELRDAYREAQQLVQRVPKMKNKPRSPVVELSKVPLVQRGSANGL
compound,measurement,setting,value
"N#Cc1cc(-c2ncnc(Nc3ccc(N4CCN(C5COC5)CC4)cc3)n2)ccc1OC1CCOCC1 [Compound 1, 5-(4-((4-(4-(oxetan-3-yl)piperazin-1-yl)phenyl)amino)-1,3,5-triazin-2-yl)-2-((tetrahydro-2H-pyran-4-yl)oxy)benzonitrile]",inhibition,off-target kinases [1]; read-out: % Inhibition 1,33%
same,inhibition,off-target kinases [1]; read-out: % Inhibition 2,42%
same,inhibition,off-target kinases [1]; read-out: % Inhibition Avg,37%
same,inhibition,off-target kinases [2]; read-out: % Inhibition 1,-1%
same,inhibition,off-target kinases [2]; read-out: % Inhibition 2,1%
same,inhibition,off-target kinases [2]; read-out: % Inhibition Avg,0%
same,inhibition,off-target kinases [3]; read-out: % Inhibition 1,30%
same,inhibition,off-target kinases [3]; read-out: % Inhibition 2,38%
same,inhibition,off-target kinases [3]; read-out: % Inhibition Avg,34%
same,inhibition,off-target kinases [4]; read-out: % Inhibition 1,3%
same,inhibition,off-target kinases [4]; read-out: % Inhibition 2,7%
same,inhibition,off-target kinases [4]; read-out: % Inhibition Avg,5%
